{"source": "patent US20210338662A1", "about": "“ALPHA-2-ADRENOCEPTOR SUBTYPE C (ALPHA-2C) ANTAGONISTS FOR THE TREATMENT OF SLEEP APNEA” (Bayer Aktiengeseilschaft, priority 2018, published 2021)", "test_system": "upper airway collapsibility in anaesthetized, spontaneously breathing pigs", "assay": "pig model of obstructive sleep apnea (OSA): upper airway collapsibility under negative pressure", "format": "in vivo, German Landrace pigs", "conditions": "i.v. bolus 1.5 mg/kg then i.v. infusion 0.475 mg/kg/h for four hours", "from_the_text": "The therapeutic potential of the compounds of formula (I) according to the present invention in sleep apnea has been assessed preclinically in a pig model of obstructive sleep apnea (OSA).\nUsing negative pressure, it is possible to induce collapse and thus obstruction of the upper respiratory tract in anaesthetized, spontaneously breathing pigs (Wirth K. J. et al., Sleep 36(5) (2013) pp. 699-708).\nGerman Landrace pigs are used for the model. The pigs are anaesthetized and tracheotomized. Two tracheal are inserted into the trachea, one into the rostral part and the other into the caudal part of the trachea. Using a connection piece, the rostral cannula is connected to a tube to the negative pressure device and to the distal tracheal cannula. The distal tracheal cannula is additionally connected to a tube with an open end to atmosphere via a connection piece that served for free tracheal breathing, circumventing the upper airway. By appropriate opening and clamping of those tubes breathing can be switched from nasal breathing to breathing through the caudal tracheal cannula, circumventing the upper airway, and the (isolated) upper airway can be connected to the negative pressure device, causing airflow in the inspiratory direction.\nAt certain points in time, the collapsibility of the upper respiratory tract is tested by having the pig breathe via the caudal cannula and applying negative pressures of −50, −100 and −150 cm water head (cm H2O) to the upper respiratory tract. This causes the upper respiratory tract to collapse, which manifests itself in an interruption of the airflow and a pressure drop in the tube system. This test is conducted prior to the administration of the test substance and at certain intervals after the administration of the test substance. An appropriately effective test substance can prevent this collapse of the respiratory tract in the inspiratory phase.\nFIG. 1: Effect of i.v. bolus injection of 1.5 mg/kg followed by an i.v. infusion of 0.475 mg/kg/h for four hours of the α2-Adrenoceptor subtype C (alpha-2C) antagonists of formula (I) ((S)-1-((2,3-dihydrobenzo[b][1,4]dioxin-2-yl)methyl)-4-(3-(methoxymethyl)pyridin-2-yl)piperazine given at time point 0 min on upper airway collapsibility at different levels of negative pressure. Percentages of pigs with no collapse are given. Mean values.", "key": {"[1]": {"conditions": "all negative pressures of −50, −100 and −150 cm"}, "[2]": {"conditions": "time 0 min (time point of administration), mean values"}}, "data": [{"smiles": "COCc1cccnc1N1CCN(C[C@H]2COc3ccccc3O2)CC1", "note": "[(S)-1-((2,3-dihydrobenzo[b][1,4]dioxin-2-yl)methyl)-4-(3-(methoxymethyl)pyridin-2-yl)piperazine]", "values": [{"measurement": "duration of inhibition of upper airway collapsibility", "setting": "[1]", "result": "up to five"}, {"measurement": "effect on upper airway collapsibility", "setting": "[1]", "result": "inhibited upper airway collapsibility"}, {"measurement": "Percent pigs without collaps −50 cm H2O", "setting": "[2]", "result": 0, "unit": "%"}, {"measurement": "Percent pigs without collaps −50 cm H2O", "setting": "time 10 min", "result": 100, "unit": "%"}, {"measurement": "Percent pigs without collaps −50 cm H2O", "setting": "time 30 min", "result": 100, "unit": "%"}, {"measurement": "Percent pigs without collaps −50 cm H2O", "setting": "time 60 min", "result": 100, "unit": "%"}, {"measurement": "Percent pigs without collaps −50 cm H2O", "setting": "time 120 min", "result": 100, "unit": "%"}, {"measurement": "Percent pigs without collaps −50 cm H2O", "setting": "time 180 min", "result": 100, "unit": "%"}, {"measurement": "Percent pigs without collaps −50 cm H2O", "setting": "time 240 min", "result": 100, "unit": "%"}, {"measurement": "Percent pigs without collaps −50 cm H2O", "setting": "time 300 min", "result": 100, "unit": "%"}, {"measurement": "Percent pigs without collaps −50 cm H2O", "setting": "time 330 min", "result": 100, "unit": "%"}, {"measurement": "Percent pigs without collaps −100 cm H2O", "setting": "[2]", "result": 0, "unit": "%"}, {"measurement": "Percent pigs without collaps −100 cm H2O", "setting": "time 10 min", "result": 100, "unit": "%"}, {"measurement": "Percent pigs without collaps −100 cm H2O", "setting": "time 30 min", "result": 100, "unit": "%"}, {"measurement": "Percent pigs without collaps −100 cm H2O", "setting": "time 60 min", "result": 100, "unit": "%"}, {"measurement": "Percent pigs without collaps −100 cm H2O", "setting": "time 120 min", "result": 100, "unit": "%"}, {"measurement": "Percent pigs without collaps −100 cm H2O", "setting": "time 180 min", "result": 100, "unit": "%"}, {"measurement": "Percent pigs without collaps −100 cm H2O", "setting": "time 240 min", "result": 100, "unit": "%"}, {"measurement": "Percent pigs without collaps −100 cm H2O", "setting": "time 300 min", "result": 100, "unit": "%"}, {"measurement": "Percent pigs without collaps −100 cm H2O", "setting": "time 330 min", "result": 100, "unit": "%"}, {"measurement": "Percent pigs without collaps −150 cm H2O", "setting": "[2]", "result": 0, "unit": "%"}, {"measurement": "Percent pigs without collaps −150 cm H2O", "setting": "time 10 min", "result": 100, "unit": "%"}, {"measurement": "Percent pigs without collaps −150 cm H2O", "setting": "time 30 min", "result": 100, "unit": "%"}, {"measurement": "Percent pigs without collaps −150 cm H2O", "setting": "time 60 min", "result": 100, "unit": "%"}, {"measurement": "Percent pigs without collaps −150 cm H2O", "setting": "time 120 min", "result": 100, "unit": "%"}, {"measurement": "Percent pigs without collaps −150 cm H2O", "setting": "time 180 min", "result": 100, "unit": "%"}, {"measurement": "Percent pigs without collaps −150 cm H2O", "setting": "time 240 min", "result": 100, "unit": "%"}, {"measurement": "Percent pigs without collaps −150 cm H2O", "setting": "time 300 min", "result": 100, "unit": "%"}, {"measurement": "Percent pigs without collaps −150 cm H2O", "setting": "time 330 min", "result": 100, "unit": "%"}]}]}
